From PubChem BioAssay AID2060907 (Molecular Pharmacology Branch, DTP, NCI, 2025)

Test system: 388556-164-R-J1-PDC complex spheroid viability
Assay: Anticancer human tumor 388556-164-R-J1-PDC patient-derived colon adenocarcinoma cell line growth inhibition [RAS]
Settings: for viability, T/C: stronger effect = lower value
Procedure, shortened: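 Agents were tested in combination matrices in half-log decrements from a top concentration at or near clinical Cmax (10 microM if undetermined). Targets were multi-cell spheroids of tumour lines plus HUVEC and MSC stromal cells.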
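Further: spheroids exposed to compound for 7 days before readout.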
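Wherever viability, T/C is given: 100% = DMSO vehicle control luminescence.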

Nc1ccn(C2OC(CO)C(O)C2(F)F)c(=O)n1 (centres undefined) + C#Cc1c(F)ccc2cc(O)cc(-c3ncc4c(N5CC6CCC(C5)N6)nc(OCC56CCCN5CC(F)C6)nc4c3F)c12
IC50 (curve of first compound, second compound 0.0316 µM): > 1 µM
IC50 (curve of first compound, second compound 0.1 µM): > 1 µM
IC50 (curve of first compound, second compound 0.316 µM): > 1 µM
IC50 (curve of first compound, second compound 1 µM): > 1 µM
IC50 (curve of first compound, second compound 3.16 µM): > 1 µM
IC50 (curve of first compound, second compound 10 µM): > 1 µM
viability, T/C (second compound 0.0316 µM, first compound 0.00316 µM): 95%
viability, T/C (second compound 0.0316 µM, first compound 0.01 µM): 95.6%
viability, T/C (second compound 0.0316 µM, first compound 0.0316 µM): 86%
viability, T/C (second compound 0.0316 µM, first compound 0.1 µM): 79.5%
viability, T/C (second compound 0.0316 µM, first compound 0.316 µM): 76%
viability, T/C (second compound 0.0316 µM, first compound 1 µM): 72.6%
viability, T/C (second compound 0.1 µM, first compound 0.00316 µM): 106%
viability, T/C (second compound 0.1 µM, first compound 0.01 µM): 96.6%
viability, T/C (second compound 0.1 µM, first compound 0.0316 µM): 80.4%
viability, T/C (second compound 0.1 µM, first compound 0.1 µM): 74.9%
viability, T/C (second compound 0.1 µM, first compound 0.316 µM): 74.9%
viability, T/C (second compound 0.1 µM, first compound 1 µM): 78.5%
viability, T/C (second compound 0.316 µM, first compound 0.00316 µM): 98.9%
viability, T/C (second compound 0.316 µM, first compound 0.01 µM): 93.2%
viability, T/C (second compound 0.316 µM, first compound 0.0316 µM): 60.9%
viability, T/C (second compound 0.316 µM, first compound 0.1 µM): 74.8%
viability, T/C (second compound 0.316 µM, first compound 0.316 µM): 75.8%
viability, T/C (second compound 0.316 µM, first compound 1 µM): 64.7%
viability, T/C (second compound 1 µM, first compound 0.00316 µM): 98.6%
viability, T/C (second compound 1 µM, first compound 0.01 µM): 82.5%
viability, T/C (second compound 1 µM, first compound 0.0316 µM): 60.1%
viability, T/C (second compound 1 µM, first compound 0.1 µM): 76.9%
viability, T/C (second compound 1 µM, first compound 0.316 µM): 75.5%
viability, T/C (second compound 1 µM, first compound 1 µM): 54.2%
viability, T/C (second compound 3.16 µM, first compound 0.00316 µM): 82.6%
viability, T/C (second compound 3.16 µM, first compound 0.01 µM): 70.1%
viability, T/C (second compound 3.16 µM, first compound 0.0316 µM): 69.5%
viability, T/C (second compound 3.16 µM, first compound 0.1 µM): 67.1%
viability, T/C (second compound 3.16 µM, first compound 0.316 µM): 68%
viability, T/C (second compound 3.16 µM, first compound 1 µM): 54.1%
viability, T/C (second compound 10 µM, first compound 0.00316 µM): 76.3%
viability, T/C (second compound 10 µM, first compound 0.01 µM): 67.1%
viability, T/C (second compound 10 µM, first compound 0.0316 µM): 52.6%
viability, T/C (second compound 10 µM, first compound 0.1 µM): 54.9%
viability, T/C (second compound 10 µM, first compound 0.316 µM): 48.5%
viability, T/C (second compound 10 µM, first compound 1 µM): 49.1%

CCn1c(-c2cccnc2C(C)OC)c2c3cc(ccc31)N1CCOC(CC(NC(=O)C(C(C)C)N(C)C(=O)C3(F)CCN(C(=O)C#CC(C)(C)N(C)C)CC3)C(=O)N3CCCC(N3)C(=O)OCC(C)(C)C2)C1 (centres undefined)
viability, T/C (compound 0.000949 µM): 105% [middle of 6 runs]
viability, T/C (compound 0.003 µM): 107% [middle of 6 runs]
viability, T/C (compound 0.00949 µM): 106% [middle of 6 runs]
viability, T/C (compound 0.03 µM): 102% [middle of 6 runs]
viability, T/C (compound 0.0949 µM): 106% [middle of 6 runs]
viability, T/C (compound 0.3 µM): 100% [middle of 6 runs]
IC50 (compound alone, run of 08/20/2024): > 0.3 µM
